Like-named read-outs stand apart in the source and are kept apart here.
How the values were obtained:
[1] = target: T1, hsTEAD1 (209-426) (Homo sapiens (Human), UniProt P28347); test: Surface Plasmon Resonance (SPR) assay; type: binding; details: Biacore 4000, 15° C., 1:1 Langmuir model, read-out: KD TEAD1 (209-426)
Description: The kinetic and affinity parameters of protein-exemplary compound interactions were evaluated by SPR. hsTEAD1 (209-426) was immobilized onto a CM7 (Series S) sensor chip via the standard amine coupling procedure, at 15° C. Prior to immobilization, the carboxymethylated surface of the chip was activated with 400 mM 1-ethyl-3-(3-dimethylaminopropyl)-carbodiimide and 100 mM N-hydroxysuccinimide for 10 min. hsTEAD1 (209-426) was diluted to 11 μg/mL in 10 mM Bis-Tris at pH 6.5 and immobilized on the activated surface chip for 8 and 10 min, in order to reach 6000 to 9000 response units (RU). The remaining activated carboxymethylated groups were blocked with a 7 min injection of 1 M ethanolamine pH 8.5 after which the surface chip was washed with 0.5% (w/v) sodium dodecyl sulphate and 50 mM glycine. HBS-N, which consists of 10 mM HEPES pH 7.4 and 150 mM NaCl, was used as the background buffer during immobilization. Exemplary compounds were prediluted in DMSO, diluted 1:50 in running buffer (20 mM Tris pH 7.4, 150 mM NaCl, 1 mM DTT, 5 mM MgCl2, 0.1 mM EGTA, 0.05% CHAPS) and injected at ten different concentrations using two-fold dilution series, from 100 μM to 0.2 μM. A DMSO solvent correction (1%-3%) was performed to account for variations in bulk signal and to achieve high-quality data. Interaction analysis cycles consisted of a 240 sec sample injection (30 μL/min; association phase) followed by 600 sec of buffer flow (dissociation phase).
All sensorgrams were processed by first subtracting the binding response recorded from the control surface (reference spot), followed by subtracting of the buffer blank injection from the reaction spot. All datasets were fit to a simple 1:1 Langmuir interaction model to determine the kinetic rate constants, KD. Experiments were performed on a Biacore 4000 (Cytiva, Uppsala, Sweden) at 15° C. and the interactions were evaluated using the provided Biacore 4000 evaluation software.

[2] = target: hsTEAD2 (217-447) (Homo sapiens (Human), UniProt Q15562); test: Thermal shift measurement / Differential Scanning Fluorimetry (DSF); type: binding; details: 100 uM compound, 2 hours at 4° C., triplicates; read-out: ΔTm TEAD2 (217-447)
hsTEAD2 (217-447), sequence (Q15562 217-447): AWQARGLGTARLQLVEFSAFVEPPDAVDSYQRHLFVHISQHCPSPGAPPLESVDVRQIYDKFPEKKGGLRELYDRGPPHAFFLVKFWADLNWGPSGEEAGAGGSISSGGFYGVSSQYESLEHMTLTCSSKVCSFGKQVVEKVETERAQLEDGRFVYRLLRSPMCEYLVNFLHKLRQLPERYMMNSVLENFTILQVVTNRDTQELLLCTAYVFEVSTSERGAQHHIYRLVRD
Description: (§1) Interaction of exemplary compounds with the various TEAD isoforms TEAD1, TEAD2, TEAD3, and TEAD4 was performed in a DSF assay. YAP-binding domains (YBD) of the four isoforms were subcloned and heterogeneously expressed in E. coli as a host. Initial purification was perfomed by using affinity tags, which got removed by overnight protease treatment. Further purification of TEAD isoforms was performed by Size-Exclusion Chromatography (SEC). Target protein containing fractions were pooled, concentrated with an Amicon (10 KDa MWCO) and quantified using the Bradford assay. Exemplary compound testing in the DSF assay for determining the shift of the TEAD isoform melting temperatures has been performed as described below: DSF was performed in MicroAmpTM EnduraPlateTM Optical 96-Well Clear Reaction Plates (Applied Biosystems, Life Technologies, California, USA) using a QuantStudio 7 Flex Real-Time PCR System (Applied Biosystems). Protein samples were briefly centrifuged before preparation. The final reaction mixture (20 μL of total volume) contained 11.8 μM of […]1 (209-426), 7.3 μM of […]2 (217-447), 7.9 μM of […]3 (216-435) or 11.7 μM of […]4 (217-424), and 2 or 4-fold of Protein Thermal ShiftTM Dye (Applied Biosystems) diluted in protein buffer-20 mM Tris pH 8.0, 150 mM NaCl (+0.5 mM TCEP for TEAD1 experiments). Prior to the addition of the dye, proteins were incubated with either 1 μL DMSO 100% (apo) or 100 uM of each exemplary compound (1 μL at 2 mM in 100% DMSO added to the […] reaction mixture) for 2 hours at 4° C. The melting curve data was recorded from 25 to 90° C. with an increment rate of 0.016° C.s^-1. Excitation and emission filters were applied for Protein Thermal ShiftTM Dye (470 nm and 520 nm, respectively) and for ROX reference dye (580 nm and 623 nm, respectively). The melting temperatures (Tm) were obtained by calculating the midpoint of each transition, using the Protein Thermal Shift SoftwareTM version 1.3. The thermal stability effect of each compound (ΔTm) was calculated by subtracting the calculated Tm in presence and absence (apo) of compound. All samples were tested in triplicates.

[3] = target: hsTEAD3 (216-435) (Homo sapiens (Human), UniProt Q99594); test: as above; type: binding; details: 100 uM compound, 2 hours at 4° C., triplicates; read-out: ΔTm TEAD3 216-435
hsTEAD3 (216-435), sequence (Q99594 216-435): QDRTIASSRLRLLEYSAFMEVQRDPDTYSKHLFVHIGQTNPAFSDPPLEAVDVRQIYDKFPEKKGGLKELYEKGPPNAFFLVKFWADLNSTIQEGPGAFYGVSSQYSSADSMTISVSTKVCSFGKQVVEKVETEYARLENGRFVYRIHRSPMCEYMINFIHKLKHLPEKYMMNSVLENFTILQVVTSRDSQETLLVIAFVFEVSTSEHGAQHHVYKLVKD
Description: as §1

[4] = target: T1, hsTEAD1 (209-426); test: as above; type: binding; details: 100 uM compound, 2 hours at 4° C., triplicates; read-out: ΔTm TEAD1 (209-426)
Description: as §1

[5] = target: hsTEAD4 (217-424) (Homo sapiens (Human), UniProt Q15561); test: as above; type: binding; details: 100 uM compound, 2 hours at 4° C., triplicates; read-out: ΔTm TEAD4 217-434
hsTEAD4 (217-424), sequence (Q15561 217-434): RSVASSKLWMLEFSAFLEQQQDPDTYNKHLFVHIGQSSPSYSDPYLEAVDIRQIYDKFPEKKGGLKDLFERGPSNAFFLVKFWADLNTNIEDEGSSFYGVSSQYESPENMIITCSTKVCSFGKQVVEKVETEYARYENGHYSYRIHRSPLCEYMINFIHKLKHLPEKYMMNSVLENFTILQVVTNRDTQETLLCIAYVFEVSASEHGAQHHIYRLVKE
Description: as §1

[6] = target: TEAD1 in SK-HEP1 cells (Homo sapiens (Human), UniProt P28347); test: TEAD degradation in SK-HEP1 cell line (immunofluorescence); type: cell-based
TEAD1 in SK-HEP1 cells, sequence (P28347 whole entry): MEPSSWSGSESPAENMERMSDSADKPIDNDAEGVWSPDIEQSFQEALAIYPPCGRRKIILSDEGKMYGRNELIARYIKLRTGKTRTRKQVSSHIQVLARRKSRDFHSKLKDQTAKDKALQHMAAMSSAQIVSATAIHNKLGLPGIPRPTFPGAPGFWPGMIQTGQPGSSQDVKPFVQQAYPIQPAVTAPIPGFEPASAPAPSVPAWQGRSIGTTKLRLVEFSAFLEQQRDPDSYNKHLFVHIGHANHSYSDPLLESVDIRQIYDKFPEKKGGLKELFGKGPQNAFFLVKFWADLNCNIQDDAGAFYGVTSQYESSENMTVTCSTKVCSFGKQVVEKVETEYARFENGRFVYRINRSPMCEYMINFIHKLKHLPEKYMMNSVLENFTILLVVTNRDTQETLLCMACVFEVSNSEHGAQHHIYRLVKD
Method in brief: (§2)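 SK-HEP1 and NCI-H226 cells were treated in duplicate for 16 or 24 h at 37 °C with compound (10 points, 1:3, top 30 µM final). After fixation, TEAD1 was immunostained with anti-TEF1 and per-cell fluorescence quantified by high-content imaging. DC50 from curve fitting.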

[7] = target: TEAD1 in NCI-H226 cells (Homo sapiens (Human), UniProt P28347); test: TEAD degradation in NCI-H226 cell line (immunofluorescence); type: cell-based
TEAD1 in NCI-H226 cells, sequence (P28347 whole entry): as above
Method in brief: as §2

[8] = target: TEAD1 (Homo sapiens (Human), UniProt P28347); test: TEAD degradation assay, 6 h time point, cell line not stated; type: cell-based; details: after 6 h, read-out: degradation concentration, DC50, after 6 h
TEAD1, sequence (P28347 whole entry, canonical isoform): as the sequence (P28347 whole entry) above
Description: Degradation of TEAD isoform TEAD1 by exemplary compounds which has been determined at different time points in two different cell lines, SK-HEP1 and NCI-H226: For the assay, SK-HEP1 (ATCC HTB-52) and NCI-H226 (ATCC CRL-5826) cells were treated in duplicates with the test compounds in a 10-point dose, 1:3 dilution steps, with the top concentration starting at 30 uM (final concentration in assay). […] The primary antibody used was Anti-TEF1 (BD, 610293) and the secondary antibody used was Alexa Fluor® 488 Goat Anti-Mouse IgG (H+L) (Molecular Probes, A-11001). Finally, the cell nuclei were co-stained by Hoechst 33258 (Invitrogen, H-3569) and imaged using a high content imager. The amount of TEAD degradation was determined by quantifying the fluorescence intensity levels of Anti-TEF1 in each individual cell per well. DC50 was calculated using curve fitting software Genedata Screener. Cell media: The SK-HEP1 cells were cultured in the following media: MEM, +10% FCS, +1× GlutaMAX, +100 μM NEAA, +10 mM HEPES, +0.5% Pen/Strep. The NCI-H226 cells were cultured in the following media: RPMI 1640, +10% FBS, +1× GlutaMAX, +10 mM HEPES, +0.5% Pen/Strep.

[9] = 16 h incubation, read-out: DC50 SK-HEP1 16 h
[10] = 24 h incubation, read-out: DC50 SK-HEP1 24 h
[11] = 24 hours, ranges, read-out: DC50 SK-HEP1
[12] = 16 h incubation, read-out: DC50 NCI-H226 16 h
[13] = 24 h incubation, read-out: DC50 NCI-H226 24 h
[14] = 24 hours, ranges, read-out: DC50 NCI-H226

T1 sequence (P28347 209-426): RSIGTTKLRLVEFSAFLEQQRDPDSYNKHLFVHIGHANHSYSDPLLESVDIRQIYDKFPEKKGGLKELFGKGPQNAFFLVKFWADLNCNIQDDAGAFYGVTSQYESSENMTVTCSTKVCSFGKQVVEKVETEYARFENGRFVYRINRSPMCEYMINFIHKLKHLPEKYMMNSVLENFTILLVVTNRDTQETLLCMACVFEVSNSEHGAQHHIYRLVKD

Kd [1] [µM] | ΔTm at 100 µM [2] [°C] | ΔTm at 100 µM [3] [°C] | ΔTm at 100 µM [4] [°C] | ΔTm at 100 µM [5] [°C] | DC50 [6, 9] [µM] | DC50 [6, 10] [µM] | DC50 [6, 11] [µM] | DC50 [7, 12] [µM] | DC50 [7, 13] [µM] | DC50 [7, 14] [µM] | DC50 [8] [µM] | SMILES
1.87 | 0 | 0 | 4.7 |  |  |  |  |  |  |  |  | Cn1cc2c3cc(C(=O)NCCOCCOCCNC(=O)COCCOCCOCCOCCOCC(=O)Nc4cccc5c4C(=O)N(C4CCC(=O)NC4=O)C5=O)ccc3n(-c3ccc(C(F)(F)F)cc3)c2n1 (centres unmarked) [Compound 1, N′-[2-(2,6-dioxopiperidin-3-yl)-1,3-dioxo-2,3-dihydro-1H-isoindol-4-yl]-N-(2-{2-[2-({2-methyl-8-[4-(trifluoromethyl)phenyl]-2H,8H-pyrazolo[3,4-b]indol-5-yl}formamido)ethoxy]ethoxy}ethyl)-3,6,9,12,15-pentaoxaheptadecanediamide]
1.52 | 0.7 | 1.3 | 4.1 | 0 |  |  |  |  |  |  |  | Cn1cc2c3cc(C(=O)NCCOCCOCCNC(=O)COCCOCCOCC(=O)Nc4cccc5c4C(=O)N(C4CCC(=O)NC4=O)C5=O)ccc3n(-c3ccc(C(F)(F)F)cc3)c2n1 (centres unmarked) [Compound 2, 2-{2-[2-({[2-(2,6-dioxopiperidin-3-yl)-1,3-dioxo-2,3-dihydro-1H-isoindol-4-yl]carbamoyl}methoxy)ethoxy]ethoxy}-N-(2-{2-[2-({2-methyl-8-[4-(trifluoromethyl)phenyl]-2H,8H-pyrazolo[3,4-b]indol-5-yl}formamido)ethoxy]ethoxy}ethyl)acetamide]
0.32 | 1 | 0.6 | 2.9 | 0 | 2 | 2 | 0.1 to 1 | 0.7 | 0.9 | 1 to 3 |  | Cc1ncsc1-c1ccc(CNC(=O)[C@@H]2C[C@@H](O)CN2C(=O)[C@@H](NC(=O)CCCCCC(=O)NCCOCCOCCNC(=O)c2ccc3c(c2)c2cn(C)nc2n3-c2ccc(C(F)(F)F)cc2)C(C)(C)C)cc1 [Compound 4, N-[(2S)-1-[(2S,4R)-4-hydroxy-2-({[4-(4-methyl-1,3-thiazol-5-yl)phenyl]methyl}carbamoyl)pyrrolidin-1-yl]-3,3-dimethyl-1-oxobutan-2-yl]-N′-(2-{2-[2-({2-methyl-8-[4-(trifluoromethyl)phenyl]-2H,8H-pyrazolo[3,4-b]indol-5-yl}formamido)ethoxy]ethoxy}ethyl) heptanediamide]
1.9 | -0.1 | 0.9 | 3.9 | 2.8 |  | 30 |  |  | 20 | 9 to 30 |  | Cn1cc2c3cc(C(=O)NCCOCCOCCNC(=O)COc4cccc5c4C(=O)N(C4CCC(=O)NC4=O)C5=O)ccc3n(-c3ccc(C(F)(F)F)cc3)c2n1 (centres unmarked) [Compound 5, 2-{[2-(2,6-dioxopiperidin-3-yl)-1,3-dioxo-2,3-dihydro-1H-isoindol-4-yl]oxy}-N-(2-{2-[2-({2-methyl-8-[4-(trifluoromethyl)phenyl]-2H,8H-pyrazolo[3,4-b]indol-5-yl}formamido)ethoxy]ethoxy}ethyl)acetamide]
 | 0.3 | 1.3 | 4.5 | -0.2 |  |  | 0.1 to 1 |  |  | 0.1 to 1 |  | Cc1ncsc1-c1ccc(CNC(=O)[C@H]2C[C@H](O)CN2C(=O)[C@H](NC(=O)COCCOCCOCCOCCOCCNC(=O)c2ccc3c(c2)c2cn(C)nc2n3-c2ccc(C(F)(F)F)cc2)C(C)(C)C)cc1 [Compound 11, (2R,4S)-1-[(2R)-3,3-dimethyl-2-[17-({2-methyl-8-[4-(trifluoromethyl)phenyl]-2H,8H-pyrazolo[3,4-b]indol-5-yl}formamido)-3,6,9,12,15-pentaoxaheptadecanamido]butanoyl]-4-hydroxy-N-{[4-(4-methyl-1,3-thiazol-5-yl)phenyl]methyl}pyrrolidine-2-carboxamide]
 |  |  |  |  | 0.22 | 0.28 | 0.1 to 1 | 0.2 | 0.3 | 0.1 to 1 | 0.28 | Cc1ncsc1-c1ccc([C@H](C)NC(=O)[C@@H]2C[C@@H](O)CN2C(=O)[C@@H](NC(=O)CCCCCc2cn(CCCCCCCNC(=O)c3ccc4c(c3)c3cn(C)nc3n4-c3ccc(C(F)(F)F)cc3)nn2)C(C)(C)C)cc1 [Compound 29, (2S,4R)-1-[(2S)-3,3-dimethyl-2-(6-{1-[7-({2-methyl-8-[4-(trifluoromethyl)phenyl]-2H,8H-pyrazolo[3,4-b]indol-5-yl}formamido)heptyl]-1H-1,2,3-triazol-4-yl}hexanamido)butanoyl]-4-hydroxy-N-[(1S)-1-[4-(4-methyl-1,3-thiazol-5-yl)phenyl]ethyl]pyrrolidine-2-carboxamide]

Reference: US20250032625A1, “HETEROBIFUNCTIONAL MOLECULES AS TEAD INHIBITORS” (Merck Patent GmbH, priority 2021, published 2025)
